From US20220175761A1, “BI-LIGAND DRUG CONJUGATE AND USE THEREOF” (COHERENT BIOPHARMA (SUZHOU), LIMITED, priority 2019, published 2022)
Numbered stars: 1 amine (or outer) side, 2 acyl side, 3 side chain; on linkers, the order of the positions; unused ones are H or OH. Square brackets hold non-standard residues; d marks the D form. Peptide text beside a SMILES is read from it. * marks the point of attachment. ξ: configuration not given here. X5 = CCc1c2c(nc3ccc(O)cc13)-c1cc3c(c(=O)n1C2)COC(=O)[C@@]3(CC)OC(=O)OCc1ccc(NC(=O)COCC(=O)*)cc1; X4 = O=C([C@H](Cc1cnnn1CCOCCOCCOCCOCCOCCN[*:3])N[*:1])[*:2]; Pteroyl = Nc1nc2ncc(CNc3ccc(C(=O)*)cc3)nc2c(=O)[nH]1; γGlu = O=C(O)[C@H](CCC(=O)[*:2])N[*:1]; ξV = CC(C)C(N)C(=O)O

Tested on: KB, LNCaP, T-47D, RT4 and NCI-H460 tumor cell lines
Experiment: Inhibition of tumor cell expansion, CCK8 (CB-50S)
Format: cell-based, human
Description: Cell lines: KB human oral epidermoid carcinoma cells, NCI-H460 human lung cancer cells, RT4 human bladder cancer cells, T-47D human breast cancer cells and LNCaP human prostate cancer cells
The cells were prepared in advance, digested with trypsin, collected and counted; with a complete cell culture medium, KB cells were diluted to 3.5×10^4 cells/ml, LNCaP cells were diluted to 8.0×10^4 cells/ml, T-47D cells were diluted to 1.2×10^4 cells/ml, NCI-H460 cells were diluted to 2.5×10^4 cells/ml, and RT4 cells were diluted to 1.2×10^5 cells/ml; to each well of 96-well plates, 100 μl of the diluted cell solution was added; and negative control and blank control wells were set on each plate. The 96-well plates added with the cells were placed in an incubator at 37° C., 5% CO2 for culturing overnight.
The samples were diluted with a culture medium to desired concentrations (see Table 16). […]
To each well, 15 μl (10% of the liquid volume in a well) of a color developing solution from CCK-8 was added; the plates were incubated at 37° C. for an appropriate time (try to keep the OD value in the range of 1.0-2.0); the covers of the 96-well plates were removed, and the plates were read at 450 nm on a microplate reader (Molecular Devices Spectra MAX Plus). […]

Q: `CCc1c2c(nc3ccc(O)cc13)-c1cc3c(c(=O)n1C2)COC(=O)[C@@]3(CC)OC(=O)OCc1ccc(NC(=O)COCC(=O)NCCOCCOCCOCCOCCOCCn2nncc2C[C@H](NC(=O)CC[C@H](NC(=O)c2ccc(NCc3cnc4[nH]c(N)nc(=O)c4n3)cc2)C(=O)O)C(=O)N[C@@H](CCCCN)C(=O)N[C@@H](CCC(=O)O)C(=O)N[C@@H](Cc2ccccc2)C(=O)N[C@@H](CC(C)C)C(=O)N[C@@H](Cc2cnc[nH]2)C(=O)N2CCC[C@H]2C(=O)N[C@@H](CO)C(=O)N[C@@H](CCCCN)C(=O)NC(C(=O)N[C@@H](CC(=O)O)C(=O)N[C@@H](CC(C)C)C(=O)N2CCC[C@H]2C(=O)N[C@@H](CCCNC(=N)N)C(=O)O)C(C)C)cc1` (some centres unmarked) [CB-50S] ({Pteroyl-γGlu}-[X4](X5)KEFLHPSK[ξV]DLPR-OH) was tested. Which “inhibitory effect on growth and expansion of tumor cell lines” value (72 hours, CCK-8) did it give?
A: The value was “has an inhibitory effect”.

Q: What about the “IC50 compared between cell lines” value (KB, LNcap, T-47D and RT4 versus NCI-H460) of the same molecule?
A: Its value is “significantly lower”.
